Bridge positions count the residues as written; N and C are the ends. Square brackets hold non-standard residues; d marks the D form. Peptide text beside a SMILES is read from it. * marks the point of attachment. ξ: configuration not given here. Phe(3,4-(OMe)2) = COc1ccc(C[C@H](N)C(=O)O)cc1OC; Phe(3-CF3) = N[C@@H](Cc1cccc(C(F)(F)F)c1)C(=O)O; Phe(4-CONH2) = NC(=O)c1ccc(C[C@H](N)C(=O)O)cc1; Phe(4-COOH) = N[C@@H](Cc1ccc(C(=O)O)cc1)C(=O)O; Bip = N[C@@H](Cc1ccc(-c2ccccc2)cc1)C(=O)O; Phe(4-CN) = N#Cc1ccc(C[C@H](N)C(=O)O)cc1; Ala(2-furyl) = N[C@@H](Cc1ccco1)C(=O)O; NH(CH2)14COOH = O=C(O)CCCCCCCCCCCCCCN*; Phe(3-Me) = Cc1cccc(C[C@H](N)C(=O)O)c1; Phe(4-Me) = Cc1ccc(C[C@H](N)C(=O)O)cc1; NH(CH2)12COOH = O=C(O)CCCCCCCCCCCCN*; Val(3-OH) = CC(C)(O)[C@H](N)C(=O)O; 4Pal = N[C@@H](Cc1ccncc1)C(=O)O; Cha = N[C@@H](CC1CCCCC1)C(=O)O; Cit = NC(=O)NCCC[C@H](N)C(=O)O; Thr(3ξ) = CC(O)[C@H](N)C(=O)O; Carboxymethyl = O=C(O)C*; Orn = NCCC[C@H](N)C(=O)O; Pra = C#CC[C@H](N)C(=O)O; Aun = NCCCCCCCCCCC(=O)O; Dab = NCC[C@H](N)C(=O)O; Nva = CCC[C@H](N)C(=O)O; Dap = NC[C@H](N)C(=O)O; AEEA = NCCOCCOCC(=O)O
Each molecule was assayed against T1, PD-1/PD-L1 interaction (PE-labeled human PD-L1-Ig binding to Jurkat cell line over-expressing human PD-1) (Homo sapiens, UniProt Q15116) (assay: Jurkat-PD-1 Cell Binding High-Content Screening Assay (CBA)). Conditions: Jurkat cell line over-expressing human PD-1; PE-labeled PD-L1-Ig 20 nM final; read-out: Jurkat hPD1-PDL1 IC50.
T1 construct: expressed in transfected cells; host or cells: Jurkat
T1 sequence (Q15116 25-288): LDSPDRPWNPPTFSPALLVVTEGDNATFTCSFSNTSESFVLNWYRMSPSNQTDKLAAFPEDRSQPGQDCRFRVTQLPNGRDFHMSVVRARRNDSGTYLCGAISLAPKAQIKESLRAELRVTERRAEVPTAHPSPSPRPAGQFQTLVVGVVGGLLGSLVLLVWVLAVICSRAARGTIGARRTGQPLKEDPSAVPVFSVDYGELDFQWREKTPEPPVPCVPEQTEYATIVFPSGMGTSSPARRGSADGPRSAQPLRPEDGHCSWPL
Assay type: cell-based
Method in brief: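 Binding of fluorescent PD-L1-Ig (20 nM final) to Jurkat-PD-1 cells was measured by automated imaging after 1 h, following a 2 h compound pre-treatment at 37° C.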

| Compound | IC50 |
| --- | --- |
| Cc1cccc(C[C@@H]2NC(=O)[C@H](CC(=O)O)NC(=O)[C@H](Cc3ccc(OCC(=O)O)cc3)NC(=O)[C@H](CN)NC(=O)CSC[C@@H](C(=O)NCCOCCOCC(=O)NCCCCCCCCCCC(=O)O)NC(=O)[C@H](CCCNC(=N)N)NC(=O)[C@H](Cc3ccc(O)cc3)NC(=O)[C@H](CC3CCCCC3)NC(=O)[C@H](CCN)NC(=O)[C@@H](CC(C)C)NC(=O)[C@H](CCCN)NC(=O)[C@H](Cc3ccc(O)cc3)NC(=O)[C@H](Cc3ccc(-c4ccccc4)cc3)NC(=O)[C@H](Cc3ccc(O)cc3)NC2=O)c1 [Compound 2520] ({CH2CO}-[Dap]Y(Carboxymethyl)D[Phe(3-Me)]Y[Bip]Y[Orn][dL][Dab][Cha]YRC[AEEA][Aun]-OH; thioether N-14) | 0.233 µM |
| CCC[C@@H]1NC(=O)CSC[C@@H](C(=O)N[C@@H](CCN)C(=O)NCCCCCCCCCCCCC(=O)O)NC(=O)[C@H](CO)NC(=O)[C@H](C(C)(C)O)NC(=O)[C@H](CC2CCCCC2)NC(=O)[C@H](CCN)NC(=O)[C@@H](CC(C)C)NC(=O)[C@H](CCCN)NC(=O)[C@H](Cc2ccc(OCC(=O)O)cc2)NC(=O)[C@H](Cc2ccc(-c3ccccc3)cc2)NC(=O)[C@H](Cc2ccc(OCC(=O)O)cc2)NC(=O)[C@H](Cc2cccc(C(F)(F)F)c2)NC(=O)[C@H](CC(=O)O)NC(=O)[C@H](Cc2ccc(C(=O)O)cc2)NC1=O [Compound 2903] ({CH2CO}-[Nva][Phe(4-COOH)]D[Phe(3-CF3)]Y(Carboxymethyl)[Bip]Y(Carboxymethyl)[Orn][dL][Dab][Cha][Val(3-OH)]SC[Dab]-{NH(CH2)12COOH}; thioether N-14) | 0.0277 µM |
| Cc1cccc(C[C@@H]2NC(=O)[C@H](CC(=O)O)NC(=O)[C@H](Cc3ccc(OCC(=O)O)cc3)NC(=O)[C@H](Cc3ccco3)NC(=O)CSC[C@@H](C(=O)N[C@@H](CCN)C(=O)NCCCCCCCCCCC(=O)O)NC(=O)[C@H](CO)NC(=O)[C@H](C(C)(C)O)NC(=O)[C@H](CC3CCCCC3)NC(=O)[C@H](CCN)NC(=O)[C@@H](CC(C)C)NC(=O)[C@H](CCCN)NC(=O)[C@H](Cc3ccc(O)cc3)NC(=O)[C@H](Cc3ccc(-c4ccccc4)cc3)NC(=O)[C@H](Cc3ccc(C(N)=O)cc3)NC2=O)c1 [Compound 3719] ({CH2CO}-[Ala(2-furyl)]Y(Carboxymethyl)D[Phe(3-Me)][Phe(4-CONH2)][Bip]Y[Orn][dL][Dab][Cha][Val(3-OH)]SC[Dab][Aun]-OH; thioether N-14) | 0.0298 µM |
| Cc1ccc(C[C@@H]2NC(=O)[C@H](Cc3cccc(C)c3)NC(=O)[C@H](CC(=O)O)NC(=O)[C@H](Cc3ccc(OCC(=O)O)cc3)NC(=O)[C@H](CN)NC(=O)CSC[C@@H](C(=O)N[C@@H](CCN)C(=O)NCCOCCOCC(=O)NCCCCCCCCCCC(=O)O)NC(=O)[C@H](CCCN)NC(=O)[C@H](C(C)C)NC(=O)[C@H](CC3CCCCC3)NC(=O)[C@H](CCN)NC(=O)[C@@H](CC(C)C)NC(=O)[C@H](CCCN)NC(=O)[C@H](Cc3ccc(O)cc3)NC(=O)[C@H](Cc3ccc(-c4ccccc4)cc3)NC2=O)cc1 [Compound 2074] ({CH2CO}-[Dap]Y(Carboxymethyl)D[Phe(3-Me)][Phe(4-Me)][Bip]Y[Orn][dL][Dab][Cha]V[Orn]C[Dab][AEEA][Aun]-OH; thioether N-14) | 0.0055 µM |
| Cc1cccc(C[C@@H]2NC(=O)[C@H](CC(=O)O)NC(=O)[C@H](Cc3ccc(C(=O)O)cc3)NC(=O)[C@H](Cc3ccc(C#N)cc3)NC(=O)CSC[C@@H](C(=O)N[C@@H](CCN)C(=O)NCCOCCOCC(=O)NCCCCCCCCCCC(=O)O)NC(=O)[C@H](CO)NC(=O)[C@H](C(C)(C)O)NC(=O)[C@H](CC3CCCCC3)NC(=O)[C@H](CCN)NC(=O)[C@@H](CC(C)C)NC(=O)[C@H](CCCN)NC(=O)[C@H](Cc3ccc(OCC(=O)O)cc3)NC(=O)[C@H](Cc3ccc(-c4ccccc4)cc3)NC(=O)[C@H](Cc3ccc(OCC(=O)O)cc3)NC2=O)c1 [Compound 2242] ({CH2CO}-[Phe(4-CN)][Phe(4-COOH)]D[Phe(3-Me)]Y(Carboxymethyl)[Bip]Y(Carboxymethyl)[Orn][dL][Dab][Cha][Val(3-OH)]SC[Dab][AEEA][Aun]-OH; thioether N-14) | 0.004 µM |
| COc1ccc(C[C@@H]2NC(=O)[C@H](CC(=O)O)NC(=O)[C@H](Cc3ccc(OCC(=O)O)cc3)NC(=O)[C@H](CN)NC(=O)CSC[C@@H](C(=O)N[C@@H](CCN)C(=O)NCCOCCOCC(=O)NCCCCCCCCCCC(=O)O)NC(=O)[C@H](CCCN)NC(=O)[C@H](C(C)C)NC(=O)[C@H](CC3CCCCC3)NC(=O)[C@H](CCN)NC(=O)[C@@H](CC(C)C)NC(=O)[C@H](CCCN)NC(=O)[C@H](Cc3ccc(O)cc3)NC(=O)[C@H](Cc3ccc(-c4ccccc4)cc3)NC(=O)[C@H](C(C)C)NC2=O)cc1OC [Compound 1283] ({CH2CO}-[Dap]Y(Carboxymethyl)D[Phe(3,4-(OMe)2)]V[Bip]Y[Orn][dL][Dab][Cha]V[Orn]C[Dab][AEEA][Aun]-OH; thioether N-14) | 0.731 µM |
| CC(C)C[C@H]1NC(=O)[C@H](CCCN)NC(=O)[C@H](Cc2ccc(C(=O)O)cc2)NC(=O)[C@H](Cc2ccc(-c3ccccc3)cc2)NC(=O)[C@H](Cc2ccc(C(=O)O)cc2)NC(=O)[C@H](Cc2cccc(C(F)(F)F)c2)NC(=O)[C@H](CC(=O)O)NC(=O)[C@H](Cc2ccc(OCC(=O)O)cc2)NC(=O)[C@H](C(C)C)NC(=O)CSC[C@@H](C(=O)N[C@@H](CCN)C(=O)NCCOCCOCC(=O)N[C@@H](CCC(=O)O)C(=O)N[C@@H](CCC(=O)NCCCCCCCCCCCCCCC(=O)O)C(=O)O)NC(=O)[C@H](CC(=O)O)NC(=O)[C@H](C(C)(C)O)NC(=O)[C@H](CC2CCCCC2)NC(=O)[C@H](CCN)NC1=O [Compound 3890] ({CH2CO}-VY(Carboxymethyl)D[Phe(3-CF3)][Phe(4-COOH)][Bip][Phe(4-COOH)][Orn][dL][Dab][Cha][Val(3-OH)]DC[Dab][AEEA]EE(NH(CH2)14COOH)-OH; thioether N-14) | 0.434 µM |
| CC[C@H](C)[C@@H]1NC(=O)[C@H](Cc2ccc(-c3ccccc3)cc2)NC(=O)[C@H](C(C)C)NC(=O)[C@H](Cc2cccc(C)c2)NC(=O)[C@H](CC(=O)O)NC(=O)[C@H](Cc2ccc(OCC(=O)O)cc2)NC(=O)[C@H](CN)NC(=O)CSC[C@@H](C(=O)N[C@@H](CCCCN)C(=O)NCCOCCOCC(=O)NCCCCCCCCCCC(=O)O)NC(=O)[C@H](CCCN)NC(=O)[C@H](C(C)C)NC(=O)[C@H](CC2CCCCC2)NC(=O)[C@H](CCN)NC(=O)[C@@H](CC(C)C)NC(=O)[C@H](CCCN)NC1=O [Compound 2652] ({CH2CO}-[Dap]Y(Carboxymethyl)D[Phe(3-Me)]V[Bip]I[Orn][dL][Dab][Cha]V[Orn]CK[AEEA][Aun]-OH; thioether N-14) | 0.0061 µM |

Further lines, results first:

| IC50 | Compound |
| --- | --- |
| 0.025 µM | CC(C)C[C@H]1NC(=O)[C@H](CCCN)NC(=O)[C@H](C(C)C)NC(=O)[C@H](Cc2ccc(-c3ccccc3)cc2)NC(=O)[C@H](C(C)C)NC(=O)[C@H](Cc2c[nH]c3ccccc23)NC(=O)[C@H](CC(=O)O)NC(=O)[C@H](Cc2ccc(OCC(=O)O)cc2)NC(=O)[C@H](CN)NC(=O)CSC[C@@H](C(=O)N[C@@H](C)C(=O)N[C@@H](CCC(=O)O)C(=O)NCC(=O)NCCCCCCCCCCC(=O)O)NC(=O)[C@H]([C@@H](C)O)NC(=O)[C@H](C(C)C)NC(=O)[C@H](CC2CCCCC2)NC(=O)[C@H](Cc2c[nH]cn2)NC1=O [Compound 1088] ({CH2CO}-[Dap]Y(Carboxymethyl)DWV[Bip]V[Orn][dL]H[Cha]VTCAEG[Aun]-OH; thioether N-14) |
| 0.023 µM | CC(C)C[C@H]1NC(=O)[C@H](CCCN)NC(=O)[C@H](C(C)C)NC(=O)[C@H](Cc2ccc(-c3ccccc3)cc2)NC(=O)[C@H](C(C)C)NC(=O)[C@H](Cc2c[nH]c3ccccc23)NC(=O)[C@H](CC(=O)O)NC(=O)[C@H](Cc2ccc(OCC(=O)O)cc2)NC(=O)[C@H](CN)NC(=O)CSC[C@@H](C(=O)NCCOCCOCC(=O)N[C@@H](CC(=O)O)C(=O)NCCCCCCCCCCC(=O)O)NC(=O)[C@H]([C@@H](C)O)NC(=O)[C@H](C(C)C)NC(=O)[C@H](CC2CCCCC2)NC(=O)[C@H](Cc2cnc[nH]2)NC1=O [Compound 1105] ({CH2CO}-[Dap]Y(Carboxymethyl)DWV[Bip]V[Orn][dL]H[Cha]VTC[AEEA]D[Aun]-OH; thioether N-14) |
| 0.0103 µM | C#CC[C@H](NC(=O)COCCOCCNC(=O)[C@H](CCN)NC(=O)[C@@H]1CSCC(=O)N[C@@H](Cc2ccncc2)C(=O)N[C@@H](Cc2ccc(OCC(=O)O)cc2)C(=O)N[C@@H](CC(=O)O)C(=O)N[C@@H](Cc2c[nH]c3ccccc23)C(=O)N[C@@H](C(C)C)C(=O)N[C@@H](Cc2ccc(-c3ccccc3)cc2)C(=O)N[C@@H]([C@@H](C)CC)C(=O)N[C@@H](CCCN)C(=O)N[C@H](CC(C)C)C(=O)N[C@@H](CCN)C(=O)N[C@@H](CC(C)C)C(=O)N[C@@H](C(C)C)C(=O)N[C@@H]([C@@H](C)O)C(=O)N1)C(=O)N[C@@H](CN)C(=O)NCCCCCCCCCCC(=O)O [Compound 1193] ({CH2CO}-[4Pal]Y(Carboxymethyl)DWV[Bip]I[Orn][dL][Dab]LVTC[Dab][AEEA][Pra][Dap][Aun]-OH; thioether N-14) |
| 0.363 µM | Cc1cccc(C[C@@H]2NC(=O)[C@H](CC(=O)O)NC(=O)[C@H](Cc3ccc(OCC(=O)O)cc3)NC(=O)[C@H](CN)NC(=O)CSC[C@@H](C(=O)N[C@@H](CCN)C(=O)NCCCCCCCCCCC(=O)O)NC(=O)[C@H](C(C)O)NC(=O)[C@H](C(C)C)NC(=O)[C@H](CC3CCCCC3)NC(=O)[C@H](CCN)NC(=O)[C@@H](CC(C)C)NC(=O)[C@H](CCCN)NC(=O)[C@H](CCCNC(N)=O)NC(=O)[C@H](Cc3ccc(-c4ccccc4)cc3)NC(=O)[C@H](CCCNC(N)=O)NC2=O)c1 (stereo partly drawn) [Compound 3593] ({CH2CO}-[Dap]Y(Carboxymethyl)D[Phe(3-Me)][Cit][Bip][Cit][Orn][dL][Dab][Cha]V[Thr(3ξ)]C[Dab][Aun]-OH; thioether N-14) |

Reference: patent US20260022142A1, “MACROCYCLIC IMMUNOMODULATORS” (Bristol-Myers Squibb Company, priority 2022, published 2026)
